Source: patent US20230057891A1, “EGFR INHIBITORS” (Hoffmann-La Roche Inc., priority 2019, published 2023)

target: T1, EGFR TMLRCS (T790M/L858R/C797S) (Homo sapiens, UniProt P00533, C797S/L858R/T790M); test: HTRF Phospho EGFR TMLRCS assay (cellular), BaF3-TMLRCS cells; format: cell-based; settings: BaF3-TMLRCS cell line, 4 hours incubation
T1 construct: host or cells: BaF3-TMLRCS cell line
Experimental: HTRF Phospho EGFR TMLRCS Assay (Cellular)
BaF3-TMLRCS cell line were obtained from Crownbio (San Diego, Calif., USA). Cells were maintained at 37° C., 5% CO2 in RPMI ATCC (Gibco 31870)+2 mM Glutamine+0.5 μg/ml Puromycin supplemented with 10% fetal bovine serum (FBS) (Gibco).
Cells are transferred as above to Greiner Bio-One, Nr. 784-08 micro-titerplate at 20000 cells/well in 12.5 μl of growth medium/well after the plates had been pre-filled with 12.5 nl of DMSO solutions of the to be tested compound (in dose response) or DMSO only. After spinning the plates at 300×g for 30 seconds the cells were incubated for 4 hours at 37 C, 5% CO2, 95% humidity. The cells were lysed by adding to the compound mix 4 µl/well of the supplemented lysis buffer (Cis-bio, Phospho-EGFR HTRF kit, 64EG1PEH), followed by incubation for 30 min at room temperature with shaking (400 rpm). The plates were then frozen and stored overnight at −80 C. On the next day and after thawing the plates, 4 μl of a mixture of anti-Phospho-EGFR Cryptate and of anti-Phospho-EGFR-d2 antibody solutions prepared in the supplied detection buffer was added to each well. The lidded plates were then incubated for 4 h at room temperature before reading the fluorescence emission at 616 and 665 nm using an Envision reader (Perkin Elmer). Data was analyzed in similar fashion as above using the normalized ratio of the 665 to 616 signals multiplied by 10000.

T1 sequence (P00533 25-1210 T790M/C797S/L858R): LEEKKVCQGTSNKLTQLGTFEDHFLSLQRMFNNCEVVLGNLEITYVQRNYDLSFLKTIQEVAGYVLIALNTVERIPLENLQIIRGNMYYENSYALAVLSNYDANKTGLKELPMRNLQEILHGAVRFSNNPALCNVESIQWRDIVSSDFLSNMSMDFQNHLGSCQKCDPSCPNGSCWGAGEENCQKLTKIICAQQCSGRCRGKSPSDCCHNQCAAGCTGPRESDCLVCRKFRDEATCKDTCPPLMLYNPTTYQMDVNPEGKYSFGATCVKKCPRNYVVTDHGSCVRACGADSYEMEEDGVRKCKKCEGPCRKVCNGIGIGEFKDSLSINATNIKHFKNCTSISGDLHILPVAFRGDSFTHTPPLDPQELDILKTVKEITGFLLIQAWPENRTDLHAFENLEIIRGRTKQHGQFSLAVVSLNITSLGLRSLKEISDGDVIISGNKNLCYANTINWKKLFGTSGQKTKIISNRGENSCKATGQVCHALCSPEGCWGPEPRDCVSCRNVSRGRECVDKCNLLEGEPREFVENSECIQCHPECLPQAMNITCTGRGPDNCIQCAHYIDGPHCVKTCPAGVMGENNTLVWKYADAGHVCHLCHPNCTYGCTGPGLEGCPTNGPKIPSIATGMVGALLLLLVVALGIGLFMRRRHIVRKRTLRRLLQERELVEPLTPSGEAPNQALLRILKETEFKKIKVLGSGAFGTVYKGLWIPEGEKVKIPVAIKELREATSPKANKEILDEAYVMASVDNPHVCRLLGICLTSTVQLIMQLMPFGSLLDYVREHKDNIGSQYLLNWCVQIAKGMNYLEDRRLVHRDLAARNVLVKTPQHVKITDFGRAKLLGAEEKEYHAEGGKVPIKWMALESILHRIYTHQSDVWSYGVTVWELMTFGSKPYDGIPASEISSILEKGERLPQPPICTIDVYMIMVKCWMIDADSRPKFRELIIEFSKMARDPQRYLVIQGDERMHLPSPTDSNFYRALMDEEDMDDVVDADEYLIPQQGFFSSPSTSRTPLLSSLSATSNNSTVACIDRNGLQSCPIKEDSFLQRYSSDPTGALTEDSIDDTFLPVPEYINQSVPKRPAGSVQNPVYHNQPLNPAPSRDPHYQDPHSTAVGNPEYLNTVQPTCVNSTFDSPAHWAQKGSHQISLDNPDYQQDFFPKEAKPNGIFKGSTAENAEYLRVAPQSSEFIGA

| Structure (SMILES) | IC50 [nM] |
| --- | --- |
| O=C(Nc1nccs1)C(c1ncn2c1CCC2)N1Cc2c(Cl)cc(-c3ccc(C45CC(CN6CCC(CO)CC6)(C4)C5)cc3)cc2C1=O (racemic) [Example 1, (2RS)-2-(6,7-Dihydro-5H-pyrrolo[1,2-c]imidazol-1-yl)-2-[4-chloro-6-[4-[3-[[4-(hydroxymethyl)-1-piperidyl]methyl]-1-bicyclo[1.1.1]pentanyl]phenyl]-1-oxo-isoindolin-2-yl]-N-thiazol-2-yl-acetamide] | 9 |
| O=C(Nc1nccs1)C(c1ncn2c1CCC2)N1Cc2c(F)cc(-c3ccc(C45CC(CN6CCCC6)(C4)C5)cc3)cc2C1=O (racemic) [Example 5, (2RS)-2-(6,7-Dihydro-5H-pyrrolo[1,2-c]imidazol-1-yl)-2-[4-fluoro-1-oxo-6-[4-[3-(pyrrolidin-1-ylmethyl)-1-bicyclo[1.1.1]pentanyl]phenyl]isoindolin-2-yl]-N-thiazol-2-yl-acetamide] | 13 |
| O=C(Nc1nccs1)C(c1ncn2c1CCC2)N1Cc2c(F)cc(-c3ccc(C45CC(CN6CCC(CO)CC6)(C4)C5)cc3)cc2C1=O (racemic) [Example 2, (2RS)-2-(6,7-Dihydro-5H-pyrrolo[1,2-c]imidazol-1-yl)-2-[4-fluoro-6-[4-[3-[[4-(hydroxymethyl)-1-piperidyl]methyl]-1-bicyclo[1.1.1]pentanyl]phenyl]-1-oxo-isoindolin-2-yl]-N-thiazol-2-yl-acetamide] | 4 |
| O=C(Nc1nccs1)C(c1ncn2c1CCC2)N1Cc2c(F)cc(-c3ccc(C45CC(CN6CCCC(O)CC6)(C4)C5)cc3)cc2C1=O (racemic) [Example 6, (2RS)-2-(6,7-Dihydro-5H-pyrrolo[1,2-c]imidazol-1-yl)-2-[4-fluoro-6-[4-[3-[[(4RS)-4-hydroxyazepan-1-yl]methyl]-1-bicyclo[1.1.1]pentanyl]phenyl]-1-oxo-isoindolin-2-yl]-N-thiazol-2-yl-acetamide] | 8 |
| O=C(Nc1nccs1)C(c1ncn2c1CCC2)N1Cc2c(F)cc(-c3ccc(C45CC(CN6CCC(O)CC6)(C4)C5)cc3)cc2C1=O (racemic) [Example 4, (2RS)-2-(6,7-Dihydro-5H-pyrrolo[1,2-c]imidazol-1-yl)-2-[4-fluoro-6-[4-[3-[(4-hydroxy-1-piperidyl)methyl]-1-bicyclo[1.1.1]pentanyl]phenyl]-1-oxo-isoindolin-2-yl]-N-thiazol-2-yl-acetamide] | 13 |
| O=C(Nc1nccs1)C(c1ncn2c1CCC2)N1Cc2c(F)cc(-c3ccc(C45CC(CN6CCC(CO)CC6)(C4)C5)cc3)c(F)c2C1=O (racemic) [Example 7, (2RS)-2-[4,7-Difluoro-6-[4-[3-[[4-(hydroxymethyl)-1-piperidyl]methyl]-1-bicyclo[1.1.1]pentanyl]phenyl]-1-oxo-isoindolin-2-yl]-2-(6,7-dihydro-5H-pyrrolo[1,2-c]imidazol-1-yl)-N-thiazol-2-yl-acetamide] | 4 |
| CN(C)CC12CC(c3ccc(-c4cc(F)c5c(c4)C(=O)N(C(C(=O)Nc4nccs4)c4ncn6c4CCC6)C5)cc3)(C1)C2 (racemic) [Example 3, (2RS)-2-(6,7-Dihydro-5H-pyrrolo[1,2-c]imidazol-1-yl)-2-[6-[4-[3-[(dimethylamino)methyl]-1-bicyclo[1.1.1]pentanyl]phenyl]-4-fluoro-1-oxo-isoindolin-2-yl]-N-thiazol-2-yl-acetamide] | 10 |
